Measurements as given in patent US11964929B2, “Application of glutamine derivative in preparation of animal feed additive” (WISORIG TE[…]. LIMITED, priority 2018, dated 2024).

Key:
[1] = tested on: Duroc×Landrace×Yorkshire cross-bred bacon-type pigs; experiment: Effect of the glutamine derivatives on the production performance of hogs (piglets), 28-day feeding; assay type: in vivo; settings: 65-day-old pigs, basal ration + 800 ppm, 28 days; for FCR (feed conversion ratio): ADFI/ADG
Text: 480 65-day-old Duroc×Landrace×Yorkshire cross-bred bacon-type pigs with similar body weight, were randomly divided into 16 groups, with 3 replications per group and 10 pigs (half of male and female) per replication. The pig pen and tools were sterilized before the experiment. […] The experiment lasted for 28 days.

yellow broilers = settings: 1-day-old yellow broilers, basal ration + 750 ppm, 20 days; for FCR (feed conversion ratio): ADFI/ADG
Method: The experiment was conducted with single-factor randomized design. 720 1-day-old yellow broilers with a similar average body weight of 50 g, was randomly divided into 16 groups, each group consisting of 3 replicates and equal numbers of males and females, and each replicate consisting of 15 yellow broilers. The chicken house and tools were sterilized before the experiment. During the experiment, the broilers were kept in separate regions in the same chicken house under the same feeding and management conditions. Basal ration mainly consisted of corn and soybean meal. During the entire process, each treatment group was not given other antioxidants or growth promoters. […] The experiment lasted for 20 days. The broilers were given ad libitum access to food and water, and feeds were provided twice every day. At the day when the broilers were 21-day old (withdrawing feed for 12 hours, without withdrawing water), taking each replicate as one unit, body weights of the broilers were measured for calculating average daily feed intake (ADFI, g/d per broiler), average daily weigh gain (ADG, g/d per broiler), and feed conversion ratio (FCR). Feed conversion ratio (FCR)=Average daily feed intake/Average daily weight gain

Grass carps = settings: basal ration + 500 ppm, 8 weeks; for Feed coefficient: 580/(final−initial weight); for Weight gain rate: (final−initial)/initial×100; for Average final weight: restricted feeding
Method: Grass carps were used in this experiment, which is conducted in an aquaculture region in the Guangzhou Insighter experiment yard. Healthy grass carps with the same size were reared in large netcages for 4 weeks before the experiment. The grass carps were kept in small floating netcages during the experiment. The small netcages and netcages for acclimatization were both placed in a 3500 m^2 pond in the experiment yard. […] In the experiment, 520 grass carps, which had been starved for 1 day, were randomly divided into 13 groups, each group consisting of 4 replicates, and each replicate consisting of 10 grass carps. The grass carps were weighed, taking each replicate as a whole. Then they were randomly released to 52 netcages in which they were fed with different feeds. […] Feed restriction had been adopted during the experiment, and the feeding amount was adjusted once a week. The treatment and control groups were fed twice (7:30 and 15:30) every day, with their feeding levels (based on initial body weights) being identical to be a total amount of 580 g. The experiment lasted for 8 weeks.
Calculation: Weight gain rate (%)=(Average final weight−Average initial weight)/Average initial weight×100 Feed coefficient=580/(Average final weight−Average initial weight)

Compound | ADFI (average daily feed intake) [1] [g/d per piglet] | ADG (average daily weight gain) [1] [g/d per piglet] | FCR (feed conversion ratio) [1] | ADFI (average daily feed intake) (yellow broilers) [g/d per broiler] | ADG (average daily weight gain) (yellow broilers) [g/d per broiler] | FCR (feed conversion ratio) (yellow broilers) | Feed coefficient (Grass carps) | Weight gain rate (Grass carps) [%] | Average final weight (Grass carps) [g]
CCNC(=O)CCC(NC(=O)c1ccccc1)C(=O)O (stereo not drawn) [Compound 1] | 1657 | 661 | 2.506 | 32.8 | 14.8 | 2.22 | 1.79 | 72.41 | 678
CCCCNC(=O)CCC(NC(=O)c1ccccc1)C(=O)O (stereo not drawn) [Compound 2] | 1648 | 651 | 2.531 | 31.5 | 14.1 | 2.23 | 1.78 | 70.47 | 690
O=C(NC(CCC(=O)N1CCCCC1)C(=O)O)c1ccccc1 (stereo not drawn) [Compound 5] | 1633 | 651 | 2.510 | 30.9 | 13.7 | 2.26 | 1.80 | 71.27 | 678
CCNC(=O)CCC(NC(=O)c1ccccc1)C(=O)OCC (stereo not drawn) [Compound 6] | 1615 | 646 | 2.499 | 31.2 | 14.2 | 2.20 | 1.77 | 72.84 | 681
CCNC(=O)CCC(NC(=O)c1ccccc1)C(=O)[O-].CCNC(=O)CCC(NC(=O)c1ccccc1)C(=O)[O-].[Zn+2] (stereo not drawn) [Compound 7] | 1674 | 672 | 2.491 | 31.7 | 14.5 | 2.18 |  |  | 
CCNC(=O)CCC(NC(=O)c1ccccc1)C(=O)[O-].CCNC(=O)CCC(NC(=O)c1ccccc1)C(=O)[O-].[Cu+2] (stereo not drawn) [Compound 8] | 1670 | 671 | 2.488 | 30.6 | 14.2 | 2.16 |  |  | 
CCNC(=O)CCC(NC(=O)c1ccccc1)C(=O)[O-].CCNC(=O)CCC(NC(=O)c1ccccc1)C(=O)[O-].[Ca+2] (stereo not drawn) [Compound 9] | 1636 | 652 | 2.511 | 32.5 | 14.8 | 2.20 |  |  | 
CCNC(=O)CCC(NC(=O)c1ccc(Cl)cc1)C(=O)O (stereo not drawn) [Compound 10] | 1607 | 657 | 2.508 | 32.2 | 14.5 | 2.22 | 1.81 | 72.34 | 669
CCNC(=O)CCC(NC(=O)c1ccc(C)cc1)C(=O)O (stereo not drawn) [Compound 11] | 1592 | 634 | 2.512 | 30.8 | 13.8 | 2.24 | 1.80 | 70.73 | 681
CCNC(=O)CCC(NC(=O)c1ccc(O)cc1)C(=O)O (stereo not drawn) [Compound 12] | 1599 | 633 | 2.528 | 31.6 | 14.0 | 2.26 | 1.79 | 69.56 | 692
CCCC(=O)NC(CCC(=O)NCC)C(=O)O (stereo not drawn) [Compound 13] | 1609 | 627 | 2.566 | 31.3 | 13.7 | 2.28 | 1.83 | 70.42 | 687
CCCCCCCCCC(=O)NC(CCC(=O)NCC)C(=O)O (stereo not drawn) [Compound 14] | 1582 | 621 | 2.548 | 31.8 | 14.0 | 2.27 | 1.81 | 70.70 | 678
CCCCCCCCCCCCCC(=O)NC(CCC(=O)NCC)C(=O)O (stereo not drawn) [Compound 15] | 1670 | 650 | 2.571 | 32.4 | 14.6 | 2.22 | 1.80 | 70.73 | 681
